The source of these data is ChEMBL document CHEMBL5506051, “Structure-Activity Relationships toward the Identification of a High-Potency Selective Human Toll-like Receptor-7 Agonist” (J Med Chem, 2024).

The target of data set [1] is T1, Toll-like receptor 7 (Homo sapiens, UniProt Q9NYK1).
T1 sequence (Q9NYK1 whole entry): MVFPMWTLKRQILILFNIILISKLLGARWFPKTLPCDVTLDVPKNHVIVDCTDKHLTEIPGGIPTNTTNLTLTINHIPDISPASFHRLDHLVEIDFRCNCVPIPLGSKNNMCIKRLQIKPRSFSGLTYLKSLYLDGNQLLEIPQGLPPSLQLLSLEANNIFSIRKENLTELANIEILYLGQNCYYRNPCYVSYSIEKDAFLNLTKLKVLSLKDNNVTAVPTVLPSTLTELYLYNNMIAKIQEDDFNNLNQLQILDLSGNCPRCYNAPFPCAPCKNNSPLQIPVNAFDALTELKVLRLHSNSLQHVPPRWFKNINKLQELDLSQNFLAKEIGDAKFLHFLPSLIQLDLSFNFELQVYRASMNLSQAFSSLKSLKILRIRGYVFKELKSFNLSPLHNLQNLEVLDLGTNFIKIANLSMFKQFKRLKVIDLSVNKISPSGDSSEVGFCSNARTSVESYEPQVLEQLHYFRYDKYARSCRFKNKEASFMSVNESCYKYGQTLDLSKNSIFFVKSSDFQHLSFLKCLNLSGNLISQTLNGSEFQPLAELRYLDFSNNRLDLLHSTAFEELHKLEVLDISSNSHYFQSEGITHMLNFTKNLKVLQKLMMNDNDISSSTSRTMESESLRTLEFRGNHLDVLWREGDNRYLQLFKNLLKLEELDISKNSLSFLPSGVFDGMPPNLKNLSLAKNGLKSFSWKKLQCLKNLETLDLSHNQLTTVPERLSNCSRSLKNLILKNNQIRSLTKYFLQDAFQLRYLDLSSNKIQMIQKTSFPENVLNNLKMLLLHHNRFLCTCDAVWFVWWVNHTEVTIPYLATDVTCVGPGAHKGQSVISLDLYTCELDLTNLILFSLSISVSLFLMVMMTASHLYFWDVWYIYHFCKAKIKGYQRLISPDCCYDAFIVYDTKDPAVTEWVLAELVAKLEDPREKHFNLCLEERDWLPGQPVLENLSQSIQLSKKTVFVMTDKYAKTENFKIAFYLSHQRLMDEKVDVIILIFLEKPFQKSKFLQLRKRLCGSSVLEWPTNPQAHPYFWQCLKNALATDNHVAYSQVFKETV
As to the kind of experiment: Agonist activity at human TLR7 in HEK-Blue hTLR7 cells assessed as increase in inducible SEAP level incubated for overnight by QUANTI-Blue reagent based assay. The data set is classed as cell-based.

The species named for data set [2] is Homo sapiens. In words: Selectivity ratio of agonist activity at human TLR8 to agonist activity at human TLR7.
Data set [3] has as its target T2, Toll-like receptor 8 (Homo sapiens, UniProt Q9NR97).
T2 sequence (Q9NR97 whole entry): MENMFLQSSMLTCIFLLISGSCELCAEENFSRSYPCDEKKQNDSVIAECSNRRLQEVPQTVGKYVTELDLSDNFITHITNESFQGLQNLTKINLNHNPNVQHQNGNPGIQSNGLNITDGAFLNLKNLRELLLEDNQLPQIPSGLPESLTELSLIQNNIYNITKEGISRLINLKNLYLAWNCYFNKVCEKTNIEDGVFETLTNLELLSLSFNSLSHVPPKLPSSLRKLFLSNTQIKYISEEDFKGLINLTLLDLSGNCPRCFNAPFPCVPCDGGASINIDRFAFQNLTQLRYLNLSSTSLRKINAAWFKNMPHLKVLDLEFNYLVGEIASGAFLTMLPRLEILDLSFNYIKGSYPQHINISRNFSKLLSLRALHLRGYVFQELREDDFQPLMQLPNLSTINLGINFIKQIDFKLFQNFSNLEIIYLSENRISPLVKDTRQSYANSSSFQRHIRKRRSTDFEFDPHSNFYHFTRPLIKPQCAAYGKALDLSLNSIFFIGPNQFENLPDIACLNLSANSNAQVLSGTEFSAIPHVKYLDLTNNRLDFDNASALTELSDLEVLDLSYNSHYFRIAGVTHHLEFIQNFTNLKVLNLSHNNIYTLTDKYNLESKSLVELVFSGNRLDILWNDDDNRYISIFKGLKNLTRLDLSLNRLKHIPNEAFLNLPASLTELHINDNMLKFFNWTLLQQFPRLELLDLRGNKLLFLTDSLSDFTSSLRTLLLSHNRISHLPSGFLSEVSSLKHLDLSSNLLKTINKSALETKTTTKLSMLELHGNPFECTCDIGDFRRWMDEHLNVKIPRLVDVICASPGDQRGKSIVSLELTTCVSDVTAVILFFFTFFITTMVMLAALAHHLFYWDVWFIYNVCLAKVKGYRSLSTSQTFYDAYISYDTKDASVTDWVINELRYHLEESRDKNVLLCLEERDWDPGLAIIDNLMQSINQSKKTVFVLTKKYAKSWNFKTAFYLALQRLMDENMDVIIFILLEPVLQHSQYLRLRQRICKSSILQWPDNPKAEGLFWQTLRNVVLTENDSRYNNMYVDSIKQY
As to the kind of experiment: Agonist activity at human TLR8 in HEK-Blue hTLR8 cells assessed as increase in inducible SEAP level incubated for overnight by QUANTI-Blue reagent based assay. The data set is classed as cell-based.

Data set [4] addresses T3, Toll-like receptor 7 (Homo sapiens) (UniProt Q9NYK1).
T3 sequence (whole entry): T1 sequence (Q9NYK1 whole entry)
As to the kind of experiment: Potency index, ratio of BBIQ EC50 to test compound EC50 for agonist activity at human TLR7 in HEK-Blue hTLR7 cells assessed as increase in inducible SEAP level incubated for overnight by QUANTI-Blue reagent based assay. Particulars: filed as agonist. The data set is classed as cell-based.

Data set [5] is filed under the species Homo sapiens. In words: Selectivity index, ratio of EC50 for agonist activity at human TLR7 in HEK-Blue hTLR7 cells to EC50 for agonist activity at human TLR8 in HEK-Blue hTLR8 cells. The data set is classed as cell-based.
In data set [6] the test system is Panel NCI-60 (60 carcinoma cell lines). In words: Cytotoxicity against human Panel NCI-60 (60 carcinoma cell lines) at <=10 uM. It is filed as toxicity, cell-based.

By EC50 is commonly meant the concentration needed to bring the measured effect to its halfway point.

Consider `CCCCc1nc2c(N)nc3ccccc3c2n1Cc1ccc(C(=O)NN)cc1`, for which the concentration for a half-maximal effect (EC50) in data set [1] worked out at 1.1 µM.

On to `CCCCOc1nc(N)c2c(n1)N(Cc1cccc(CN3CCCC3)c1)CC(=O)N2`, for which, in data set [2], the Selectivity ratio came out at 30. In the case of `CCCCc1nc2c(N)nc3ccccc3c2n1Cc1ccc(C(=O)NCC(C)(C)O)cc1`, the EC50 in data set [1] turned out to be 0.31 µM; in data set [3] it was 25.8 µM. As to `CCCCc1nc2c(N)nc3ccccc3c2n1Cc1ccc(C(=O)NCCO)cc1`, in data set [3], the EC50 worked out at 50.3 µM. On the same count and under the same terms, the same measure for `CCCCc1nc2c(N)nc3ccccc3c2n1Cc1ccc(O)cc1`: 125 µM. Regarding `CCCCc1nc2c(N)nc3ccccc3c2n1Cc1ccc(C(=O)NC)cc1`, the Ratio EC50 was found to be 8 in data set [4] and 159 in data set [5]. Moreover, the EC50 in data set [1] turned out to be 0.2 µM; in data set [3], 31.8 µM. For the same molecule, the Activity entry in data set [6] is on record as “Non-Toxic”. With `CCCCc1nc2c(N)nc3ccccc3c2n1Cc1ccc(C(N)=O)cc1`, the Ratio EC50 was determined as 3 in data set [4] and 57 in data set [5]. Also, the EC50 in data set [1] was 0.32 µM; in data set [3], 18.2 µM. For the molecule `CCCCCCCCNC(=O)c1ccc(Cn2c(CCCC)nc3c(N)nc4ccccc4c32)cc1`, in data set [6], the Activity entry is recorded as “Non-Toxic”.

Consider `CCCCc1nc2c(N)nc3ccccc3c2n1Cc1ccc(OC)cc1`, for which, in data set [1], the EC50 worked out at 1.83 µM. On the same count and under the same terms, in the case of `CC(C)Cn1cnc2c(N)nc3ccccc3c21` [IMIQUIMOD] it was 8.29 µM; in that of `CCCCc1nc2c(N)nc3ccccc3c2n1Cc1ccccc1`, 0.85 µM.
